# Experiments:
# Rat Granulosa Cell = assay: Rat granulosa cell FSH-stimulated cAMP production; assay type: cell-based; conditions: inhibition of cAMP produced by EC70 dose of FSH (1.4 nM), maximum concentration 50 μM
# Protocol: Insulin, diethylstilbesterol, androstenedione, forskolin and DMSO were purchased from Sigma (St. Louis, Mo.). Fungizone, penicillin/streptomycin, charcoal-treated heat inactivated fetal bovine serum (CT-HI-FBS) and Dulbecco's Modified Eagle Medium:Hams F12 medium containing 15 mM Hepes and L-glutamine (DMEM:F12), were purchased from GIBCO BRL (Grand Island, N.Y.).
# Ovine FSH (NIADDK-oFSH-17; FSH potency=20 NIH-FSH-S1 U/mg; LH contamination=0.04 times NIH-LH-S1) was received from Ogden Bioservices Corporation, Rockville, Md. Human FSH (Fertinex), was purchased from Serono Pharmaceutical (Framingham, Mass.). Human chorionic gonadotropin (hCG) was purchased from Sigma (St Louis, Mo.).
# Immature intact female rats (Wistar-derived strain; 21-23 days old) were implanted with a single pellet (Innovative Research of America, Sarasota, Fla.) containing 2.5 mg diethylstilbesterol (DES) for 3 days. On the third day, the animals were sacrificed, the ovaries were removed, and the granulosa cells were isolated essentially as described in Haynes-Johnson et al., Biol. Reprod., 61 (1), 147-153, (1999). Granulosa cells were plated at a density of 300,000 cells per ml with 0.2 ml added to each well of 96 well culture dishes (Corning, N.Y.). Cultures were incubated at 37° C. in a humidified incubator (95% air, 5% CO2) overnight (18 hours).
# Androstenedione (100,000X) was prepared by dissolving the steroid in 100% ethanol, and was subsequently diluted to a final concentration of 10^−7M containing 0.1% ethanol in assay media. The assay media was serum-free, DES-free, insulin-free media, prepared by adding 5 mL pen-strep,1.5 mL fungizone and 5 μL androstenedione to 493.5 mL DMEM F-12 media.
# Test compounds were solubilized in 30% dimethyl sulfoxide (DMSO) at a concentration of 10 mM before diluting to appropriate concentrations in assay medium. The final DMSO concentration in the treated cells and in the control cells was 0.75%.
# Test plates containing the granulosa cells were preincubated for 18 hours at 37° C. with 95% air, 5% CO2, 100% humidity. The spent media was removed and 50 μl assay media (DMEM:F12) containing 2 mM IBMX (3-isobutyl-1-methyl-xanthine) was added to the cells. Compounds (25 μl) in the appropriate concentration were added followed 5 minutes later by an EC70 dose of FSH (25 μl; 50 ng/ml; 1.4 nM). After 30 minutes @ 22.5° C. (room temperature) the reaction was terminated by addition of 25 μL 0.5 N hydrochloric acid to each well. The amount of cAMP produced was measured by radioimmunoassay in a FlashPlate (DuPont, Boston, Mass.). To each flash plate 60 μL flash plate buffer was added followed by 40 μL acidified cell sample or cAMP standard, followed with the addition of 100 μl ^125l-cAMP trace. The FlashPlates were sealed, incubated overnight @ room temperature, and counted in a Packard TopCount (Packard Instrument Co., Meriden, Conn.). The cAMP radioimmunoassay results were calculated using DPM conversion and log-logit transformation of % binding (Excel program).
# [1] = system: mature cycling female Wistar rats; assay: Interruption of 4-day estrus cycle; assay type: in vivo, rat; conditions: 20 mg/kg BID oral through 2 estrus cycles; for Estradiol Concentration / Progesterone Concentration: blood on morning of estrus; for # Ovulated Eggs: eggs in the oviduct
# Protocol: The estrus cycles of mature cycling female Wistar rats (250 g) were monitored for 2 consecutive estrus cycles to select animals with regular 4-day estrus cycles. The animals were randomly assigned to treatment groups on the morning of estrus. Starting on the morning of estrus and continuing through 2 estrus cycles, the animals orally dosed with vehicle or test compound at a concentration of 20 mg/kg; BID. At the end of the second estrus cycle, blood samples were collected by orbital puncture on the morning of estrus. The animals were then sacrificed, and the number of ovulated eggs in the oviduct were counted.
# [2] = system: immature male Wistar rats; assay: Effects on spermatogenesis in immature male rats; assay type: in vivo, rat; conditions: 20 mg/kg BID for 25 days; for Serum Testosterone (t = 3 hr, d = 25): 3 hr after dosing; for Mating Sperm: animals with sperm / animals
# Protocol: Twenty-one day old immature male Wistar rats (Charles River) were treated with FSH antagonist at a concentration of 20 mg/kg BID for 25 days. On the penultimate day of treatment, blood samples were collected by orbital puncture immediately prior to oral dosing, and 3 hours after dosing into Vacutainers containing EDTA. On the last day of treatment, blood samples were again collected prior to time of compound administration. The concentrations of LH, FSH and testosterone were measured in the plasma. Testosterone was measured using a Coat-A-Count kit (Diagnostic Products Corp.) and luteinizing hormone and follicle stimulating hormone concentrations were measured following previously established. At the end of the treatment period, the animals were sacrificed, testes and prostates were collected and weighed, and the testes were prepared for histological examination. The presence of sperm in testes were evaluated by hematoxylin and eosin staining, and in separate slides with a BERG stain (REF, 1963).
Compound,EC50 (Rat Granulosa Cell),Estradiol Concentration [1],Progesterone Concentration [1],# Ovulated Eggs [1],Prostate Weight [2],Testes Weight [2],"Serum Testosterone (t = 3 hr, d = 25) [2]",Mating Sperm [2]
C[C@@H](CN(CC(=O)NCc1ccc(CN)cc1)S(=O)(=O)c1ccc(-c2ccccc2Cl)cc1)c1ccccc1 [Compound 198],20 nM,20.1 ± 4.4,3.6 ± 0.9,14.0,1.6 ± 0.2,8.8 ± 0.2,3.6 ± 0.6,3/4
Cc1ccccc1-c1ccc(S(=O)(=O)N(CC(=O)NCc2ccc(CN)cc2)C[C@@H](C)c2ccccc2)cc1 [Compound 215],10 nM,22.2 ± 4.2,2.6 ± 0.6,16.3,1.8 ± 0.1,8.7 ± 0.5,4.9 ± 0.7,1/4
